For series [1], the system named is Asterina miniata immature oocytes. The series can be described thus: Microinjection into immature starfish oocytes, oocyte maturation (GVBD, polar body extrusion). The series is classed as cell-based. The conditions noted are these: for effect on oocyte maturation as assessed by GVBD and polar body extrusion: microinjected, compared to control injections, text summary. The method, then:
Asterina miniata gametes were collected and microinjections were performed as described previously (Carroll et al., 1999). Briefly, quantitative microinjection of Asterina miniata oocytes was performed at 16° C., using mercury-filled micropipets (Hiramoto, 1962; Kiehart, 1982; and see the information available at http://egg/uchc.edu/injection), allowing injection of precisely calibrated picoliter volumes into the oocytes and blastomeres. Injection volumes were 3% of the total cellular volume (for oocytes, 93 pL and for blastomeres, 47 pL). Buffer alone, purified O-acetylated ADP ribose or recombinant protein was injected into immature oocytes or one blastomere of a two cell stage embryo to a final concentration in the cytoplasm as indicated in the figure legends and Tables. 1-methyl adenine was from Sigma and was used at 10 μM.
Micro-injection assays were performed in starfish and sea urchin ooctyes. Historically echinoderm development has been a biochemically tractable and well-defined system to assess biological function of pruteins, bio-active compounds and for detailed analyses of the cell cycle. This system is attractive for its amenability to quantitative microinjection assays, cell cycle analyses, biochemical fractionation and microscopic imaging of eggs and early embryos. Initially, we hypothesized that if O-acetyl-ADP ribose produced by SIR2 was involved in SIR2's gene silencing ability, then micro-injection of O-acetyl-ADP ribose into a maturing oocyte should give rise to a phenotypic effect on the developing animal, perhaps through perturbations in normal gene expression patterns. Immature oocytes were micro-injected with HPLC-purified O-acetyl-ADP ribose or with a buffer control. The oocytes were allowed to mature by the addition of 1-methyladenine and assessed for developmental alterations.
Asterina miniata immature oocytes were microinjected with the amounts of O-acetyl ADP ribose in PBS. The maturation hormone 1-methyladenine was added (10 μM) 25-30 minutes post-injection. Oocytes were monitored for GVBD and polar body extrusion. […] The number of oocytes per treatment is given. Combined results of 3 separate experiments (3 batches of O-acetyl ADP ribose).
Asterina miniata immature oocytes were microinjected with the given enzymes in PBS. The maturation hormone 1-methyladenine was added (10 μM) 25-30 minutes post-injection. Oocytes were monitored for GVBD and polar body extrusion. […] The number of oocytes per treatment (n) is given. Data are from four separate batches of oocytes. All oocytes for a given treatment responded in the same way unless indicated otherwise (e.g. see 200 nM HST2 injection).

For another series, the target named is HST2 (Saccharomyces cerevisiae, UniProt P53686). The series can be described thus: Rapid-reaction single turnover quench-flow analysis. As to conditions: HST2, excess NAD^+, sub-stoichiometric [^3H]-AcLys14 H3, 22±3° C., pH 7.5, single exponential fit. The format is biochemical, yeast. The text has this: FIGS. 5A-5C are a series of graphs showing that acetate is not a primary product of HST2-catalyzed histone/protein deacetylation. H3 peptide was stoichiometrically acetylated on Lys-14 by the histone acetyltransferase P/CAF and using [^3H]-AcCoA. Monoacetylated [^3H]-AcLys-14 H3 peptide was then purified by HPLC (FIG. 5A) and utilized as a substrate in the HST2 deacetylation reactions (FIG. 5B). Upon complete consumption of [^3H]-AcLys-14 H3 by HST2, all of the original [^3H] from H3 peptide was converted to a labeled product that eluted much later than authentic acetate. Conditions: 375 nM HST2, 175 μM NAD^+, 5 μM [^3H]-Lys14 AcH3, 1 mM DTT, for 1 min at 37° C. prior to quenching with TFA to a final concentration of 1%. FIG. 5C: Single turnover rapid quench-flow analysis. […] Quantification of [^3H]-AcLys14 H3 peptide (diamonds) and the [^3H]-acetate-adduct (circles) was accomplished by liquid scintillation counting of these species separated using reverse phase HPLC. […]
P/CAF [^3H]-monoacetylation of H3 peptide. […] Every mass spectrum was recorded as the sum of 20 consecutive spectra, each produced by a single pulse of photons. […] The amount of [^3H]-AcLys14 H3 peptide and [^3H]-O-acetyl ADP ribose was determined by liquid scintillation counting of these species separated on reverse phase HPLC. […]

Where [2] appears, read: 0.2 mg/ml (0.32 mM) in cytoplasm.
[3] abbreviates: 0.5 mg/ml (0.8 mM) in cytoplasm.
Where [4] appears, read: 1.0 mg/ml (1.6 mM) in cytoplasm.

Sequence of HST2 (P53686 whole entry): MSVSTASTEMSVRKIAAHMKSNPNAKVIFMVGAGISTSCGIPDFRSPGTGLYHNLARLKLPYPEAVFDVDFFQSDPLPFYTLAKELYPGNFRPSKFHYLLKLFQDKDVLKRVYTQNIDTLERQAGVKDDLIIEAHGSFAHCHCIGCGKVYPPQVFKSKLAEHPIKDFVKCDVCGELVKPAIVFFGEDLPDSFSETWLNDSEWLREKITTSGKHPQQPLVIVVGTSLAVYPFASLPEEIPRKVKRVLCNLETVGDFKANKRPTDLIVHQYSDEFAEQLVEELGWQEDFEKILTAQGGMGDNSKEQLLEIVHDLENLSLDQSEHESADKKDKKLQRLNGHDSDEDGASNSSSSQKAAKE

For the substance O-acetyl-ADP ribose, the “no effect (oocytes)” value in series [1] (0.01 mg/ml (0.016 mM) in cytoplasm) is listed as 8/8; in series [1] (0.1 mg/ml (0.16 mM) in cytoplasm), 16/16; in series [1] (setting [2]) it was 7/8; in series [1] (3.0 mg/ml (5 mM) in cytoplasm, 1-methyladenine 10 μM), 2/3. The “compete block (oocytes)” value in series [1] (setting [2]) is on record as 1/8; in series [1] (setting [3]), 6/16; in series [1] (setting [4]) it was 22/23; in series [1] (1.7 mg/ml (3 mM) in cytoplasm), 6/6. Moreover, the “1-2 hr delay (oocytes)” value in series [1] (setting [3]) was 10/16; in series [1] (setting [4]) it was 1/23. The “immediate death (oocytes)” value is recorded as 1/3 in series [1] (3.0 mg/ml (5 mM) in cytoplasm) and 2/2 in series [1] (10 mg/ml (16 mM) in cytoplasm). For the same substance, in series [1] (apoptosis normally occurs after ~24 hrs if not fertilized), the “effect on apoptosis of unfertilized oocyte” value is on record as “delayed apoptosis”. Further, the “GV breakdown, polar body extrusion and apoptosis of injected oocytes” value in series [1] (final 1 mg/mL, images 3 and 24 hr post hormone treatment, FIG. 9) is “did not undergo GV breakdown or polar body extrusion, nor did they undergo apoptosis”. For the same substance, the “effect on oocyte maturation as assessed by GVBD and polar body extrusion” value in series [1] is “a delay in germinal vesicle breakdown (GVBD), or a complete block in oocyte maturation”; in series [1] (listed as O-acetyl ADP ribose), “block oocyte maturation”. Also, the “concentration below which no effect was observed (dose-dependency)” value in series [1] (oocyte maturation) is “below 0.32 mM”. Moreover, the “rate constant of acetate-adduct formation” value on HST2 is 2.3 ± 0.2 s⁻¹.

(Values after patent US7521432B2, “Compositions and methods for identifying agents which regulate chromosomal stability, gene activation and aging” (priority 2000, dated 2009).)
